The values that follow come from patent US5198424A, “Functionally active selectin-derived peptides” (Board of Regents of the University of Oklahoma, priority 1992, dated 1993).

Read-outs that look alike come from different tables or passages of the source. Ends that are not written are not given here.

Assay [1] has as its target T1, GMP-140 (Homo sapiens, UniProt P16109).
T1 sequence (P16109 42-830): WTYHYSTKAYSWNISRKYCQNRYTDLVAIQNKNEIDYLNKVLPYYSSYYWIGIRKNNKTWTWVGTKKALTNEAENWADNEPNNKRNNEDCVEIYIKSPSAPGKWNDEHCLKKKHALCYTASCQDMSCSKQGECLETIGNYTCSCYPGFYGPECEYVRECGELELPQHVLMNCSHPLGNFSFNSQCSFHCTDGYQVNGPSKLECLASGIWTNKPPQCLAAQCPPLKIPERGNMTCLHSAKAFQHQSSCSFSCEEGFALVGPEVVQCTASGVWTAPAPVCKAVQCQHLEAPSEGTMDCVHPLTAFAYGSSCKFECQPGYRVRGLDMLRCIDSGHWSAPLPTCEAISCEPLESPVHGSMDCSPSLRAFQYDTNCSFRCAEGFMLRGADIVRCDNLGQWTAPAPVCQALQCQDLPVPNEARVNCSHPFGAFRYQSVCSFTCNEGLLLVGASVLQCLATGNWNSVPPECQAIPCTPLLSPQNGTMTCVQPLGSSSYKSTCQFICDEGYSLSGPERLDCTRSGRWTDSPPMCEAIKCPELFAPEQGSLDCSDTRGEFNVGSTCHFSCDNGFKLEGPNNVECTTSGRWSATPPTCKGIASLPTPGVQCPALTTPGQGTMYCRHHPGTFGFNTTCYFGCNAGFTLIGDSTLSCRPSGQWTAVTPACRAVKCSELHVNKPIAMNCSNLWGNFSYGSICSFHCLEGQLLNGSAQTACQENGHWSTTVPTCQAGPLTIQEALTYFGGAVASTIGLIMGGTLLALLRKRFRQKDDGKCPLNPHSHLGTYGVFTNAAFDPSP
Briefly: Neutrophil adhesion to purified GMP-140 immobilized on plastic wells (myeloperoxidase readout). Details: from tissue; host or cells: outdated human platelet packs (platelet lysate). In kind it is cell-based. The conditions noted are these: for % Bound (neutrophils bound to immobilized GMP-140 in the presence of GMP-140-derived peptide): peptide 1.5 mM, cells bound with control C-terminal peptide 761-777 normalized to 100%; for adhesion of neutrophils to immobilized GMP-140 abolished: neutrophils treated with the protease. From the text: Peptides were screened for their ability to inhibit neutrophil adhesion to purified GMP-140 immobilized on plastic wells, using the assay described by Geng, et al., Nature 343, 757-760 (1990).
Human neutrophils are isolated from heparinized whole blood by density gradient centrifugation on Mono-Poly resolving media, Flow Laboratories. Neutrophil suspensions are greater than 98% pure and greater than 95% viable by trypan blue exclusion. For adhesion assays, neutrophils are suspended at a concentration of 2×10^6 cells/ml in Hanks' balanced salt solution containing 1.26 mM Ca^2+ and 0.81 mM Mg^2+ (HBSS, Gibco) with 5 mg/ml human serum albumin (HBSS/HSA). Adhesion assays are conducted in triplicate in 96-well microtiter plates, Corning, incubated at 4° C. overnight with 50 microliters of various protein solutions.
GMP-140 is plated at 5 micrograms/ml and the control proteins: human serum albumin (Alb), platelet glycoprotein IIb/IIIa (IIb), von Willebrand factor (vWF), fibrinogen (FIB), thrombomodulin (TM), gelatin (GEL) or human serum (HS), are added at 50 micrograms/ml. All wells are blocked for 2 h at 22° C. with 300 microliters HBSS containing 10 mg/ml HSA, then washed three times with HBSS containing 0.1% Tween-20 and once with HBSS. Cells (2×10^5 per well were added to the wells and incubated at 22° C. for 20 min. The wells were then filled with HBSS/HSA, sealed with acetate tape (Dynatech), and centrifuged inverted at 150 g for 5 min. After discarding nonadherent cells and supernates, the contents of each well are solubilized with 200 microliters 0.5% hexadecyltrimethylammonium bromide, Sigma, in 50 mM potassium phosphate, pH 6.0, and assayed for myeloperoxidase activity, Ley, et al., Blood 73, 1324-1330 (1989). The number of cells bound was derived from a standard curve of myeloperoxidase activity versus numbers of cells. Under all assay conditions, the cells released less than 5% of total myeloperoxidase and lactate dehydrogenase. Results are presented in Table I. 100% adhesion is that seen in the presence of the C-terminal peptide (amino acid residues 761-777 of GMP-140) as a negative control; this value is the same as controls in which neither peptide nor antibody is added to the cells. Inhibition is read as a lower percent adhesion, so that a value of 5% mean that 95% of the specific adhesion was inhibited.
Peptides from the lectin-like domain of GMP-140 were assayed for their ability to inhibit adhesion of neutrophils to immobilized GMP-140 in the assay described in example 1. Concentrations tested ranged from 0.1 mM to 1.5 mM.

The target of assay [2] is T1, GMP-140. Briefly: ELISA of binding of biotinylated monoclonal antibodies G1, G2, G3 to immobilized GMP-140 with soluble peptide. More on the design: from tissue; host or cells: outdated human platelet packs (platelet lysate). The conditions noted are these: peptide 1.5 mM; for remaining activity at 1500 µM: 2 h. The protocol: Based on competitive ELISAs with the purified protein, G1, G2, and G3 each recognize distinct or only partially overlapping epitopes. 1.5 mM peptide was added to biotinylated mAb at a concentration of 2.5 micrograms/ml, which were then added to the wells containing GMP-140, as described in example 1. Binding was measured by an ELISA with an avidin detection system.
The monoclonal antibodies were biotinylated as follows: to 0.5 ml of purified IgG antibody (1 mg/ml in PBS, pH 7.4) was added 50 μl of 3.2 mM N-hydroxysuccinimide biotin in dimethyl sulfoxide and 50 μl of 1 M NaHCO3. After a 2 hour incubation at room temperature in the dark, the reaction was stopped with 50 μl of 1 M NH4 Cl. The biotinylated antibody was then separated from other components by gel filtration on a PD-10 column equilibrated in PBS. The ELISA was performed as follows; all steps were performed at room temperature.
Biotinylated antibody (2.5 μg/ml) with or without 1.5 mM peptide was incubated with wells coated with GMP-140 as described in example 1. After a 2 hour incubation, the antibody was removed, the wells were washed, and 0.1 ml of horseradish peroxidase-conjugated stepavidin (Pierce), diluted 1:1000 in HBSS/HSA, was added for 30 min. The wells were then washed and 0.1 ml of peroxidase substrate (Pierce) was added for 15 min. The color reaction was read at 405 nm.
On the technique in general: ELISA stands for enzyme-linked immunosorbent assay.

Setting [3] is: mAb G1 2.5 micrograms/ml, read-out: % Binding of Biotinylated MAbs G1.
The mark [4] stands for this setting: mAb G2 2.5 micrograms/ml, read-out: % Binding of Biotinylated MAbs G2.
[5] abbreviates: mAb G3 2.5 micrograms/ml, read-out: % Binding of Biotinylated MAbs G3.

Consider “66-78: GMP-140 lectin domain amino acids 66-78, overlapping peptide; by b139 alignment KKALTENAENWAD”, for which, in assay [1], the “inhibition of neutrophil adhesion to immobilized GMP-140 (in words)” value is reported as “inhibited adhesion” and the “% Bound (neutrophils bound to immobilized GMP-140 in the presence of GMP-140-derived peptide)” value (shortened to “% Bound”) amounted to 6%. Also, in assay [1] (FIG. 3, 0.1 mM to 1.5 mM peptide), the “inhibition of neutrophil binding to immobilized GMP-140, dependence on concentration” value is “inhibited binding in a dose-dependent manner”. Also, the “inhibition of neutrophil adhesion to immobilized GMP-140 (in words)” value in assay [1] (listed as 66 to 78) is recorded as “very active”.

Consider ADNEPNNKRNNED [77-89], for which the “% Bound” value in assay [1] came out at 68%.

In the case of AENWADNE [73-80], the “% Bound” value in assay [1] was determined as 100%.

As to AENWADNEPNNKR [73-85], the “% Bound” value in assay [1] came to 41%.

With AENWADNEPNNKRNNED [73-89], the “% Bound” value in assay [1] is 22%. Further, the “% Binding of Biotinylated MAbs G1” value in assay [2] (mAb G1 2.5 micrograms/ml) was determined as 95%. For the same substance, the “% Binding of Biotinylated MAbs G2” value in assay [2] (mAb G2 2.5 micrograms/ml) turned out to be 99%. Further, the “% Binding of Biotinylated MAbs G3” value in assay [2] (mAb G3 2.5 micrograms/ml) is 94%.

In the case of “CQDDGK [SECRETORY 720-721/762-765, reference compound]”, the remaining activity at 1500 µM was 106% in assay [2] (setting [3]), 99% in assay [2] (setting [4]) and 104% in assay [2] (setting [5]).

For CQNRYTDL [19-26], the “% Bound” value in assay [1] is reported as 92%.

CQNRYTDLVAIQ [19-30]: the “% Bound” value in assay [1] is 12%. Moreover, in assay [2] (mAb G3 2.5 micrograms/ml), the “% Binding of Biotinylated MAbs G3” value was determined as 54%.

Regarding CQNRYTDLVAIQNKNE [19-34], the “% Bound” value in assay [1] is given as 5%. The “% Binding of Biotinylated MAbs G1” value in assay [2] (mAb G1 2.5 micrograms/ml) is given as 23%. Moreover, the “% Binding of Biotinylated MAbs G2” value in assay [2] (mAb G2 2.5 micrograms/ml) is on record as 26%. In addition, the “% Binding of Biotinylated MAbs G3” value in assay [2] (mAb G3 2.5 micrograms/ml) is given as 24%.

For the substance “CSDTRGEFNVGST [REPEATS 544-556, reference compound]”, the remaining activity at 1500 µM in assay [2] (setting [3]) was 107%; in assay [2] (setting [4]) it was 96%; in assay [2] (setting [5]), 111%.

For the substance GTKKALTNE [64-72], the “% Bound” value in assay [1] is on record as 92%.

Take “KDDGKCPLNPHSHLGTY [C-TERMINUS 761-777, reference compound]”: the “% Bound” value in assay [1] is on record as 100%. The remaining activity at 1500 µM in assay [2] (setting [3]), in assay [2] (setting [4]) and in assay [2] (setting [5]) was 100% in each case.

As to KNNKTW [55-60], the “% Bound” value in assay [1] amounted to 70%.

With LETIGNYT [EGF 134-141], the figures for the remaining activity at 1500 µM in assay [2] (setting [3]), in assay [2] (setting [4]) and in assay [2] (setting [5]) were 97%, 104% and 109%, respectively.

As to LKKKHAL [LECTIN 110-116], the remaining activity at 1500 µM was 98% in assay [2] (setting [3]), 100% in assay [2] (setting [4]) and 108% in assay [2] (setting [5]).

Turning to NKTWTWV [57-63], in assay [1], the “% Bound” value stood at 69%.

For NNKTW [56-60], the “% Bound” value in assay [1] is 96%.

As for NRYTDLV [21-27], the “% Bound” value in assay [1] stood at 65%.

As for NRYTDLVA [21-28], the “% Bound” value in assay [1] is 85%.

Turning to NRYTDLVAI [21-29], the “% Bound” value in assay [1] is recorded as 71%.

Turning to NRYTDLVAIQ [21-30], in assay [1], the “% Bound” value stood at 20%.

As for PNNKRNNED [81-89], the “% Bound” value in assay [1] is 104%.

Take RKNNK [54-58]: in assay [1], the “% Bound” value worked out at 108%.

As for RKNNKT [54-59], in assay [1], the “% Bound” value is 86%.

Consider RKNNKTW [54-60], for which, in assay [1], the “% Bound” value is reported as 63%.

Turning to RKNNKTWTWV [54-63], the “% Bound” value in assay [1] is 13%.

Turning to “RKRFRQK [TRANSMEMBRANE 755-761, reference compound]”, the values for the remaining activity at 1500 µM in assay [2] (setting [3]), in assay [2] (setting [4]) and in assay [2] (setting [5]) were 100%, 119% and 104%, respectively.

Take RYTDLVAIQ [22-30]: the “% Bound” value in assay [1] amounted to 6%.

As for SKQGE [EGF 128-132], the remaining activity at 1500 µM is 107% in assay [2] (setting [3]), 92% in assay [2] (setting [4]) and 104% in assay [2] (setting [5]).

In the case of TWTWV [59-63], the “% Bound” value in assay [1] was found to be 102%.

On to VAIQNKNE [27-34], for which the “% Bound” value in assay [1] came to 91%.

Regarding VEIYIKSPSAPGKWNDEH [LECTIN 91-108], the remaining activity at 1500 µM in assay [2] (setting [3]) came to 97%; in assay [2] (setting [4]), 93%; in assay [2] (setting [5]), 96%.

Consider YPGFYGPECEYVRE [EGF 145-158], for which the results for the remaining activity at 1500 µM in assay [2] (setting [3]), in assay [2] (setting [4]) and in assay [2] (setting [5]) were 94%, 92% and 108%, respectively.

On to YTASCQDMS [LECTIN/EGF 118-126], for which the remaining activity at 1500 µM in assay [2] (setting [3]) amounted to 92%; in assay [2] (setting [4]), 92%; in assay [2] (setting [5]) it was 104%.

With YTDLVAIQ [23-30], the “% Bound” value in assay [1] was determined as 7%.

YTDLVAIQNKNE [23-34]: the “% Bound” value in assay [1] is on record as 30%.

In the case of elastase [reference compound], the “adhesion of neutrophils to immobilized GMP-140 abolished” value in assay [1] was “Greater than 70%”.

In the case of trypsin [reference compound], the “adhesion of neutrophils to immobilized GMP-140 abolished” value in assay [1] is “Greater than 70%”.
